Source: patent US10689377B2 (Mirati Therapeutics, Inc., priority 2017, dated 2020)
Like-named read-outs stand apart in the source and are kept apart here.

Columns and labels:
KRas G12C [1] = target: KRas G12C (Homo sapiens, UniProt P01116, C118S/C51S/C80L/G12C); assay: KRas G12C Modification Assay (LCMS detection of covalent adduct); format: binding
Experimental: A 10 μL aliquot of each protein solution was then transferred to a 384 well microtiter plate. Initial compound stocks were generated at fifty times their desired final assay concentration in DMSO.
Exemplary compounds of Formula (I) were diluted 25-fold into K-Ras Assay Buffer to a final of two times their final concentration. A 10 μL aliquot of each diluted compound solution was then added to each of the protein solutions in the microtiter plate to initiate reaction. […] At each time point, the reactions were quenched with 20 μL of a 25 mM acetic acid solution. […] Once all reactions were quenched, the plates were heat sealed and the samples were injected into a LC/MS system for data acquisition.
Samples were injected in their liquid phase onto a C-3 reverse phase column to remove assay buffer and prepare the samples for mass spectrometer. The proteins were eluted from the column using an acetonitrile gradient and fed directly into the mass analyzer. Initial raw data analysis took place in Agilent MassHunter software immediately post data acquisition.
Raw data analysis of the intact protein was exclusively a deconvolution of the multiple charge states of each protein in solution using a maximum entropy deconvolution provided in Mass Hunter. To minimize complexity, only the data over limited mass ranges were considered for analysis, with a minimum of one Dalton mass step intervals. The heights of all masses identified during raw data analysis were exported to be further analyzed in Spotfire® data analysis software.
Final data analysis was a multistep process in the Spotfire® data analysis software package. Briefly, each protein mass was calculated as a percent of the total signal of that sample, that percentage was then normalized to the percentage of signal of the protein in the absence of reactive compounds. Those normalized signals were reported as normalized percent of control (POC). […] Key: “A”≤25% POC; “B”>25% POC-≤50% POC; “C”>50% POC and ND=not determined.

KRas G12C [2] = target: KRas G12C (Homo sapiens, UniProt P01116, G12C); assay: Cellular inhibition of KRas G12C measured by Phospho-ERK in NCI-H358 cells; format: cell-based
Procedure, shortened: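 Following 8-12 h attachment, NCI-H358 cells got serially diluted compound (0.5% DMSO) for 3 hours. Cells were then fixed, permeabilized with cold methanol, and stained for pERK(Thr202/Tyr204) and GAPDH. Ratios were converted to percent of DMSO control, with IC50 obtained by four-parameter regression.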

[3] = normalized percent of control, 5 μM concentration for 3 hours
[4] = pERK(Thr202/Tyr204) normalized with GAPDH, NCI-H358 cells, 3 hours, read-out: IC50

`C=CC(=O)N1CCN(c2nc(OCCN(C)C)nc3c2CCN(c2cc(O)cc4ccccc24)C3)CC1CCO` (stereo not shown) [Example 171, 1-(4-(2-(2-(dimethylamino)ethoxy)-7-(3-hydroxynaphthalen-1-yl)-5,6,7,8-tetrahydropyrido[3,4-d]pyrimidin-4-yl)-2-(2-hydroxyethyl)piperazin-1-yl)prop-2-en-1-one] was tested, and the POC (KRas G12C [1]; 5 µM) was “C (key: “A”≤25% POC; “B”>25% POC-≤50% POC; “C”>50% POC)” and the IC50 (KRas G12C [2]; IC50) was over 1000 nM.

With `C=CC(=O)N1CCN(c2nc(OCCCN3CCOCC3)nc3c2CCN(c2c(C)c(O)cc4ccccc24)C3)CC1` [Example 173, 1-(4-(7-(3-hydroxy-2-methylnaphthalen-1-yl)-2-(3-morpholinopropoxy)-5,6,7,8-tetrahydropyrido[3,4-d]pyrimidin-4-yl)piperazin-1-yl)prop-2-en-1-one] the POC (KRas G12C [1]; [3]) was “C (“C”>50% POC)” and the IC50 (KRas G12C [2]; [4]) was over 1000 nM.

For `C=CC(=O)N1CCN(c2nc(OC[C@@H]3CCCN3C)nc3c2CCN(c2c(C)c(O)cc4ccccc24)C3)CC1` [Example 175, (S)-1-(4-(7-(3-hydroxy-2-methylnaphthalen-1-yl)-2-((1-methylpyrrolidin-2-yl)methoxy)-5,6,7,8-tetrahydropyrido[3,4-d]pyrimidin-4-yl)piperazin-1-yl)prop-2-en-1-one], the POC (KRas G12C [1]; [3]) was “C (“C”>50% POC)” and the IC50 (KRas G12C [2]; [4]) was 0.1 to 1000 nM.

With `C=CC(=O)N1CCN(c2nc(OC[C@@H]3CCN(C)C3)nc3c2CCN(c2cccc4ccccc24)C3)CC1CC#N` (stereo partly drawn) [Example 177, 2-[4-[2-[[(3R)-1-methylpyrrolidin-3-yl]methoxy]-7-(1-naphthyl)-6,8-dihydro-5H-pyrido[3,4-d]pyrimidin-4-yl]-1-prop-2-enoyl-piperazin-2-yl]acetonitrile] the POC (KRas G12C [1]; [3]) was “C (“C”>50% POC)” and the IC50 (KRas G12C [2]; [4]) was 0.1 to 1000 nM.

`C=CC(=O)N1CCN(c2nc(OCCCN3CCOCC3)nc3c2CCN(c2c(C(F)(F)F)ccc4[nH]ncc24)C3)CC1` [Example 180, 1-[4-[2-(3-morpholinopropoxy)-7-[5-(trifluoromethyl)-1H-indazol-4-yl]-6,8-dihydro-5H-pyrido[3,4-d]pyrimidin-4-yl]piperazin-1-yl]prop-2-en-1-one] was tested, and the POC (KRas G12C [1]; [3]) was “C (“C”>50% POC)” and the IC50 (KRas G12C [2]; [4]) was 0.1 to 1000 nM.

For `C=CC(=O)N1CCN(c2nc(OC[C@@H]3CCCN3C)nc3c2CCN(c2cc(O)cc4ccccc24)C3)CC1CC#N` (stereo partly drawn) [Example 182, 2-[4-[7-(3-hydroxy-1-naphthyl)-2-[[(2S)-1-methylpyrrolidin-2-yl]methoxy]-6,8-dihydro-5H-pyrido[3,4-d]pyrimidin-4-yl]-1-prop-2-enoyl-piperazin-2-yl]acetonitrile], the POC (KRas G12C [1]; [3]) was “C (“C”>50% POC)” and the IC50 (KRas G12C [2]; [4]) was 0.1 to 1000 nM.

For `C=CC(=O)N1CCN(c2nc(OC[C@H]3CCCN3C)nc3c2CCN(c2cccc4ccccc24)C3)CC1CC#N` (stereo partly drawn) [Example 183, 2-[4-[2-[[(2R)-1-methylpyrrolidin-2-yl]methoxy]-7-(1-naphthyl)-6,8-dihydro-5H-pyrido[3,4-d]pyrimidin-4-yl]-1-prop-2-enoyl-piperazin-2-yl]acetonitrile], the POC (KRas G12C [1]; [3]) was “C (“C”>50% POC)” and the IC50 (KRas G12C [2]; [4]) was 0.1 to 1000 nM.

With `C=CC(=O)N1CCN(c2nc(OCCCN3CCOCC3)nc3c2CCN(c2cc(O)cc4cccnc24)C3)CC1` [Example 205, 1-(4-(7-(6-hydroxyquinolin-8-yl)-2-(3-morpholinopropoxy)-5,6,7,8-tetrahydropyrido[3,4-d]pyrimidin-4-yl)piperazin-1-yl)prop-2-en-1-one] the POC (KRas G12C [1]; [3]) was “C (“C”>50% POC)” and the IC50 (KRas G12C [2]; [4]) was over 1000 nM.

In the case of `C=CC(=O)N1CCN(c2nc(OCCCN3CC4CC4C3)nc3c2CCN(c2cc(O)cc4ccccc24)C3)CC1` (stereo not shown) [Example 206, 1-(4-(2-(3-(3-azabicyclo[3.1.0]hexan-3-yl)propoxy)-7-(3-hydroxynaphthalen-1-yl)-5,6,7,8-tetrahydropyrido[3,4-d]pyrimidin-4-yl)piperazin-1-yl)prop-2-en-1-one], the POC (KRas G12C [1]; [3]) is reported as “C (“C”>50% POC)” and the IC50 (KRas G12C [2]; [4]) is reported as 0.1 to 1000 nM.

In the case of `C=CC(=O)N1CCN(c2nc(OCCN3CCC[C@@H](F)C3)nc3c2CCN(c2cc(O)cc4ccccc24)C3)CC1` [Example 207, (R)-1-(4-(2-(2-(3-fluoropiperidin-1-yl)ethoxy)-7-(3-hydroxynaphthalen-1-yl)-5,6,7,8-tetrahydropyrido[3,4-d]pyrimidin-4-yl)piperazin-1-yl)prop-2-en-1-one], the POC (KRas G12C [1]; [3]) is reported as “C (“C”>50% POC)” and the IC50 (KRas G12C [2]; [4]) is reported as over 1000 nM.

In the case of `C=CC(=O)N1CCN(c2nc(OCCCN3C[C@@H](F)[C@@H](F)C3)nc3c2CCN(c2cc(O)cc4ccccc24)C3)CC1` [Example 208, 1-(4-(2-(3-((3R,4S)-3,4-difluoropyrrolidin-1-yl)propoxy)-7-(3-hydroxynaphthalen-1-yl)-5,6,7,8-tetrahydropyrido[3,4-d]pyrimidin-4-yl)piperazin-1-yl)prop-2-en-1-one], the POC (KRas G12C [1]; [3]) is reported as “C (“C”>50% POC)” and the IC50 (KRas G12C [2]; [4]) is reported as over 1000 nM.

`C=CC(=O)N1CCN(c2nc(OC[C@@H]3CCCN3C)nc3c2CCN(c2ccccc2C(F)(F)F)C3)CC1CC#N` (stereo partly drawn) [Example 210, 2-(1-acryloyl-4-(2-(((S)-1-methylpyrrolidin-2-yl)methoxy)-7-(2-(trifluoromethyl)phenyl)-5,6,7,8-tetrahydropyrido[3,4-d]pyrimidin-4-yl)piperazin-2-yl)acetonitrile] was tested, and the POC (KRas G12C [1]; [3]) was “C (“C”>50% POC)” and the IC50 (KRas G12C [2]; [4]) was 0.1 to 1000 nM.

`C=CC(=O)N1CCN(c2nc(OC[C@@H]3C[C@@H](F)CN3C)nc3c2CCN(c2cccc4ccccc24)C3)CC1CC#N` (stereo partly drawn) [Example 220, 2-(1-acryloyl-4-(2-(((2S,4R)-4-fluoro-1-methylpyrrolidin-2-yl)methoxy)-7-(naphthalen-1-yl)-5,6,7,8-tetrahydropyrido[3,4-d]pyrimidin-4-yl)piperazin-2-yl)acetonitrile] was tested, and the POC (KRas G12C [1]; [3]) was “C (“C”>50% POC)” and the IC50 (KRas G12C [2]; [4]) was 0.1 to 1000 nM.

`C=CC(=O)N1CCN(c2nc(OCCCO)nc3c2CCN(c2cccc4ccccc24)C3)CC1CC#N` (stereo not shown) [Example 231, 2-(1-acryloyl-4-(2-(3-hydroxypropoxy)-7-(naphthalen-1-yl)-5,6,7,8-tetrahydropyrido[3,4-d]pyrimidin-4-yl)piperazin-2-yl)acetonitrile] was tested, and the POC (KRas G12C [1]; [3]) was “C (“C”>50% POC)” and the IC50 (KRas G12C [2]; [4]) was 0.1 to 1000 nM.

For `C=CC(=O)N1CCN(c2nc(OC[C@@H]3CCCN3C)nc3c2CCN(c2cccc4ccccc24)C3)C[C@@H]1CC#N` [Example 234, 2-((S)-1-acryloyl-4-(2-(((S)-1-methylpyrrolidin-2-yl)methoxy)-7-(naphthalen-1-yl)-5,6,7,8-tetrahydropyrido[3,4-d]pyrimidin-4-yl)piperazin-2-yl)acetonitrile], the POC (KRas G12C [1]; [3]) was “C (“C”>50% POC)” and the IC50 (KRas G12C [2]; [4]) was 0.1 to 1000 nM.

`CC#CC(=O)N1CCN(c2nc(OC[C@@H]3CCCN3C)nc3c2CCN(c2cccc4ccccc24)C3)CC1CC#N` (stereo partly drawn) [Example 242, 2-(1-(but-2-ynoyl)-4-(2-(((S)-1-methylpyrrolidin-2-yl)methoxy)-7-(naphthalen-1-yl)-5,6,7,8-tetrahydropyrido[3,4-d]pyrimidin-4-yl)piperazin-2-yl)acetonitrile] was tested, and the POC (KRas G12C [1]; [3]) was “C (“C”>50% POC)” and the IC50 (KRas G12C [2]; [4]) was 0.1 to 1000 nM.

For `C=CC(=O)N1CCN(c2nc(OC[C@@H]3CCCN3C)nc3c2CCN(c2cccc4ccc(C)cc24)C3)CC1CC#N` (stereo partly drawn) [Example 245, 2-[4-[7-(7-methyl-1-naphthyl)-2-[[(2S)-1-methylpyrrolidin-2-yl]methoxy]-6,8-dihydro-5H-pyrido[3,4-d]pyrimidin-4-yl]-1-prop-2-enoyl-piperazin-2-yl]acetonitrile], the POC (KRas G12C [1]; [3]) was “C (“C”>50% POC)” and the IC50 (KRas G12C [2]; [4]) was 0.1 to 1000 nM.

`C=CC(=O)N1CCN(c2nc(OC[C@@H]3CCCN3C)nc3c2CCN(c2c(C(C)C)ccc4[nH]ncc24)C3)CC1` [Example 248, (S)-1-(4-(7-(5-isopropyl-1H-indazol-4-yl)-2-((1-methylpyrrolidin-2-yl)methoxy)-5,6,7,8-tetrahydropyrido[3,4-d]pyrimidin-4-yl)piperazin-1-yl)prop-2-en-1-one] was tested, and the POC (KRas G12C [1]; 5 µM) was “C (key: “A”≤25% POC; “B”>25% POC-≤50% POC; “C”>50% POC)” and the IC50 (KRas G12C [2]; [4]) was over 1000 nM.

In the case of `C=CC(=O)N1CCN(c2nc(OC[C@@H]3CCCN3C)nc3c2CCN(c2c(F)c(O)cc4ccccc24)C3)CC1` [Example 249, 1-[4-[7-(2-fluoro-3-hydroxy-1-naphthyl)-2-[[(2S)-1-methylpyrrolidin-2-yl]methoxy]-6,8-dihydro-5H-pyrido[3,4-d]pyrimidin-4-yl]piperazin-1-yl]prop-2-en-1-one], the POC (KRas G12C [1]; [3]) is reported as “C (“C”>50% POC)” and the IC50 (KRas G12C [2]; [4]) is reported as 0.1 to 1000 nM.

For `C=CC(=O)N1CCN(c2nc(OC[C@]3(C)CCCN3C)nc3c2CCN(c2cccc4ccccc24)C3)CC1CC#N` (stereo partly drawn) [Example 251, 2-(1-acryloyl-4-(2-(((S)-1,2-dimethylpyrrolidin-2-yl)methoxy)-7-(naphthalen-1-yl)-5,6,7,8-tetrahydropyrido[3,4-d]pyrimidin-4-yl)piperazin-2-yl)acetonitrile], the POC (KRas G12C [1]; [3]) was “C (“C”>50% POC)” and the IC50 (KRas G12C [2]; pERK(Thr202/Tyr204) normalized with GAPDH, NCI-H358 cells, 3 hours) was 0.1 to 1000 nM.
